Results as given in patent US4327097A, “Novel penicillins” (Toyama Chemical Co., Ltd., priority 1974, dated 1982).
Converted amounts (≈) assume the structure as drawn.

Experiments:
Assay type in all cases: cell-based
Proteus morganii = test: MIC against clinical isolates; conditions: Table 6-5, clinical isolate; unit assumed
Escherichia coli NIHJ = test: MIC, plate method, standard strains; conditions: Table 4, standard strain; unit assumed
In short: (§1)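 Test compound was incorporated into Heart infusion agar at pH 7.4, plates were inoculated with 10^4 cells each (suspension at 10^6 cells/ml), and the minimum inhibitory concentration was recorded.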

Proteus vulgaris 3027 = test: MIC, plate method, standard strains; conditions: Table 4, standard strain; unit assumed
In short: as §1

[1] = tested on: Staphylococcus aureus 209p; test: MIC, plate method, standard strains; conditions: Table 4, standard strain; unit assumed
In short: as §1

Klebsiella pneumoniae [2] = test: MIC, plate method, standard strains; conditions: Table 4, standard strain; unit assumed
In short: as §1

[3] = tested on: Pseudomonas aeruginosa I.F.O.; test: MIC, plate method, standard strains; conditions: Table 4, standard strain; unit assumed
In short: as §1

Proteus mirabilis = test: MIC against clinical isolates; conditions: Table 6-5, clinical isolate; unit assumed
Escherichia coli = test: MIC against clinical isolates; conditions: Table 6-2, clinical isolate; unit assumed
Pseudomonas aeruginosa = test: MIC against clinical isolates; conditions: unit assumed; for MIC Pseudomonas aeruginosa GN / MIC Pseudomonas aeruginosa GN4 / MIC Pseudomonas aeruginosa GN 82 / MIC Pseudomonas aeruginosa GN 221 / MIC Pseudomonas aeruginosa GN 376 / MIC Pseudomonas aeruginosa GN 1035 / MIC Pseudomonas aeruginosa GN 1091 / MIC Pseudomonas aeruginosa GN 2565: Table 6-3, clinical isolate; for MIC Pseudomonas aeruginosa GN: strain number not given; for MIC Pseudomonas aeruginosa S-1: Table 6-4, clinical isolate
Proteus rettgeri = test: MIC against clinical isolates; conditions: Table 6-5, clinical isolate; unit assumed
Staphylococcus aureus = test: MIC against clinical isolates; conditions: Table 6-1, clinical isolate; unit assumed
Proteus vulgaris = test: MIC against clinical isolates; conditions: Table 6-5, clinical isolate; unit assumed
Klebsiella pneumoniae [4] = test: MIC against clinical isolates; conditions: Table 6-4, clinical isolate; unit assumed

Compound	MIC Proteus morganii (Proteus morganii)	MIC Escherichia coli NIHJ (Escherichia coli NIHJ)	MIC Proteus vulgaris 3027 (Proteus vulgaris 3027)	MIC Staphylococcus aureus 209p [1]	MIC Klebsiella pneumoniae (Klebsiella pneumoniae [2])	MIC Pseudomonas aeruginosa I.F.O. [3]	MIC Proteus mirabilis (Proteus mirabilis)	MIC Escherichia coli GN 3435 (Escherichia coli)	MIC Escherichia coli GN 3452 (Escherichia coli)	MIC Escherichia coli GN 3465 (Escherichia coli)	MIC Escherichia coli K-2 (Escherichia coli)	MIC Escherichia coli K-4 (Escherichia coli)	MIC Pseudomonas aeruginosa GN4 (Pseudomonas aeruginosa)	MIC Pseudomonas aeruginosa GN 82 (Pseudomonas aeruginosa)	MIC Pseudomonas aeruginosa GN 221 (Pseudomonas aeruginosa)	MIC Pseudomonas aeruginosa GN 376 (Pseudomonas aeruginosa)	MIC Pseudomonas aeruginosa GN 1035 (Pseudomonas aeruginosa)	MIC Pseudomonas aeruginosa GN 1091 (Pseudomonas aeruginosa)	MIC Pseudomonas aeruginosa GN 2565 (Pseudomonas aeruginosa)	MIC Pseudomonas aeruginosa S-1 (Pseudomonas aeruginosa)	also measured
CCN1CCN(C(=O)NC(C(=O)NC2C(=O)N3C(C(=O)O)=C(CSc4nnnn4CC)CSC23)c2ccc(O)cc2)C(=O)C1=O (single isomer, unassigned) [Compound No. 78]	1.56 µg/mL (≈ 2.36 µM)	< 0.1 µg/mL	0.79 µg/mL (≈ 1.2 µM)	3.13 µg/mL (≈ 4.74 µM)	0.2 µg/mL (≈ 0.303 µM)	12.5 µg/mL (≈ 18.9 µM)	1.56 µg/mL (≈ 2.36 µM)	0.39 µg/mL (≈ 0.591 µM)	0.39 µg/mL (≈ 0.591 µM)	1.56 µg/mL (≈ 2.36 µM)	0.78 µg/mL (≈ 1.18 µM)	0.39 µg/mL (≈ 0.591 µM)	25 µg/mL (≈ 37.9 µM)	12.5 µg/mL (≈ 18.9 µM)	6.25 µg/mL (≈ 9.47 µM)	12.5 µg/mL (≈ 18.9 µM)	25 µg/mL (≈ 37.9 µM)	25 µg/mL (≈ 37.9 µM)	12.5 µg/mL (≈ 18.9 µM)	25 µg/mL (≈ 37.9 µM)	MIC Pseudomonas aeruginosa GN (Pseudomonas aeruginosa): 12.5 µg/mL (≈ 18.9 µM); MIC Proteus rettgeri (Proteus rettgeri): 1.56 µg/mL (≈ 2.36 µM); MIC Staphylococcus aureus F-1 (Staphylococcus aureus): 3.13 µg/mL (≈ 4.74 µM); MIC Staphylococcus aureus MS 8588 (Staphylococcus aureus): 3.13 µg/mL (≈ 4.74 µM); MIC Staphylococcus aureus MS 8596 (Staphylococcus aureus): 3.13 µg/mL (≈ 4.74 µM); MIC Staphylococcus aureus MS 8619 (Staphylococcus aureus): 1.56 µg/mL (≈ 2.36 µM); MIC Staphylococcus aureus MS 8684 (Staphylococcus aureus): 1.56 µg/mL (≈ 2.36 µM); MIC Proteus vulgaris (Proteus vulgaris): 0.39 µg/mL (≈ 0.591 µM); MIC Klebsiella pneumoniae GN 917 (Klebsiella pneumoniae [4]): 0.39 µg/mL (≈ 0.591 µM); MIC Klebsiella pneumoniae GN 4081 (Klebsiella pneumoniae [4]): 3.13 µg/mL (≈ 4.74 µM)
CCN1CCN(C(=O)NC(C(=O)NC2C(=O)N3C(C(=O)O)=C(CSc4nncs4)CSC23)c2ccc(O)cc2)C(=O)C1=O (single isomer, unassigned) [Compound No. 79]	1.56 µg/mL (≈ 2.41 µM)	< 0.1 µg/mL	3.13 µg/mL (≈ 4.83 µM)	1.57 µg/mL (≈ 2.42 µM)	0.79 µg/mL (≈ 1.22 µM)	3.13 µg/mL (≈ 4.83 µM)	1.56 µg/mL (≈ 2.41 µM)	0.39 µg/mL (≈ 0.602 µM)	0.39 µg/mL (≈ 0.602 µM)	3.13 µg/mL (≈ 4.83 µM)	1.56 µg/mL (≈ 2.41 µM)	0.78 µg/mL (≈ 1.2 µM)	12.5 µg/mL (≈ 19.3 µM)	12.5 µg/mL (≈ 19.3 µM)	6.25 µg/mL (≈ 9.65 µM)	6.25 µg/mL (≈ 9.65 µM)	25 µg/mL (≈ 38.6 µM)	12.5 µg/mL (≈ 19.3 µM)	25 µg/mL (≈ 38.6 µM)	25 µg/mL (≈ 38.6 µM)	MIC Proteus rettgeri (Proteus rettgeri): 3.13 µg/mL (≈ 4.83 µM); MIC Staphylococcus aureus F-1 (Staphylococcus aureus): 1.56 µg/mL (≈ 2.41 µM); MIC Staphylococcus aureus MS 8588 (Staphylococcus aureus): 3.13 µg/mL (≈ 4.83 µM); MIC Staphylococcus aureus MS 8596 (Staphylococcus aureus): 3.13 µg/mL (≈ 4.83 µM); MIC Staphylococcus aureus MS 8619 (Staphylococcus aureus): 1.56 µg/mL (≈ 2.41 µM); MIC Staphylococcus aureus MS 8684 (Staphylococcus aureus): 1.56 µg/mL (≈ 2.41 µM); MIC Proteus vulgaris (Proteus vulgaris): 0.39 µg/mL (≈ 0.602 µM); MIC Klebsiella pneumoniae GN 917 (Klebsiella pneumoniae [4]): 0.78 µg/mL (≈ 1.2 µM); MIC Klebsiella pneumoniae GN 4081 (Klebsiella pneumoniae [4]): 12.5 µg/mL (≈ 19.3 µM)
Cn1nnnc1SCC1=C(C(=O)O)N2C(=O)C(NC(=O)C(NC(=O)N3CCN(CCO)C(=O)C3=O)c3ccccc3)C2SC1 (single isomer, unassigned) [Compound No. 82]	1.56 µg/mL (≈ 2.42 µM)	< 0.1 µg/mL	0.79 µg/mL (≈ 1.22 µM)	1.57 µg/mL (≈ 2.43 µM)	0.79 µg/mL (≈ 1.22 µM)	25 µg/mL (≈ 38.7 µM)	3.13 µg/mL (≈ 4.85 µM)	1.56 µg/mL (≈ 2.42 µM)	1.56 µg/mL (≈ 2.42 µM)	6.25 µg/mL (≈ 9.68 µM)	6.25 µg/mL (≈ 9.68 µM)	1.56 µg/mL (≈ 2.42 µM)	50 µg/mL (≈ 77.4 µM)	50 µg/mL (≈ 77.4 µM)	25 µg/mL (≈ 38.7 µM)	25 µg/mL (≈ 38.7 µM)	50 µg/mL (≈ 77.4 µM)	50 µg/mL (≈ 77.4 µM)	50 µg/mL (≈ 77.4 µM)	100 µg/mL (≈ 155 µM)	MIC Pseudomonas aeruginosa GN (Pseudomonas aeruginosa): 50 µg/mL (≈ 77.4 µM); MIC Proteus rettgeri (Proteus rettgeri): 6.25 µg/mL (≈ 9.68 µM); MIC Staphylococcus aureus F-1 (Staphylococcus aureus): 3.13 µg/mL (≈ 4.85 µM); MIC Staphylococcus aureus MS 8588 (Staphylococcus aureus): 3.13 µg/mL (≈ 4.85 µM); MIC Staphylococcus aureus MS 8596 (Staphylococcus aureus): 3.13 µg/mL (≈ 4.85 µM); MIC Staphylococcus aureus MS 8619 (Staphylococcus aureus): 1.56 µg/mL (≈ 2.42 µM); MIC Staphylococcus aureus MS 8684 (Staphylococcus aureus): 1.56 µg/mL (≈ 2.42 µM); MIC Proteus vulgaris (Proteus vulgaris): 0.78 µg/mL (≈ 1.21 µM); MIC Klebsiella pneumoniae GN 917 (Klebsiella pneumoniae [4]): 1.56 µg/mL (≈ 2.42 µM); MIC Klebsiella pneumoniae GN 4081 (Klebsiella pneumoniae [4]): 6.25 µg/mL (≈ 9.68 µM)
